In patent US12624034B2, “Non-covalent modifiers of AKT1 and uses thereof” (Terremoto Biosciences, Inc., priority 2023, dated 2026):
Where two headings read alike, the source gives them in different places.

Key:
[1] = molecular target: T1, AKT1 E17K (Homo sapiens, UniProt P31749, E17K); assay: Live cell AKT1 E17K target engagement by NanoBRET competitive probe displacement in HEK293 cells; assay type: binding; conditions: 2 h at 37° C.
T1 construct: expressed in transfected cells; host or cells: HEK293
T1 sequence (P31749 whole entry E17K): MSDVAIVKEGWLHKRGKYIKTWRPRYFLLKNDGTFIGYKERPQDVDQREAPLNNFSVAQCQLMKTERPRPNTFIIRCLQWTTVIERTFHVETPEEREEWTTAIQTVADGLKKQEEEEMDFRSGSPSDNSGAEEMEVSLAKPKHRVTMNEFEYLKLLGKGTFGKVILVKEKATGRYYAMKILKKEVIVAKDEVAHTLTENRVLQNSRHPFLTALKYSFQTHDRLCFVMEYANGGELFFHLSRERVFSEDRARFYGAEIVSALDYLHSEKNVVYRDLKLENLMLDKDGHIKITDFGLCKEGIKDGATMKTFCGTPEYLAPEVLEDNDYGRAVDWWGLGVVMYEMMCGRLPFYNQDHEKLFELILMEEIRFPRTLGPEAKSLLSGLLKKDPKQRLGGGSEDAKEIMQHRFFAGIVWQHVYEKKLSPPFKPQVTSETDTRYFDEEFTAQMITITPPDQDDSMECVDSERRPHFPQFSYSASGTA
Outline: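 IC50 derived by log(inhibitor)–response Hill fitting of BRET ratio (E600/E460), measured after adding substrate and extracellular NanoLuc inhibitor. Preceding step: 2 h, 37 °C incubation of transfected HEK293 cells (kinase–NanoLuc fusions) with diluted compound and ~EC50 ATP-competitive fluorescent tracer.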

[2] = test system: LAPC4 prostate cancer cells, which express the AKT1 E17K allele; assay: Antiproliferative effects in LAPC4 cells (CellTiter Glo, 72 h); assay type: cell-based; conditions: read-out: LAPC4 proliferation IC50
Outline: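 Growth inhibition was measured by CellTiter Glo ATP luminescence after 72 h compound exposure of 1,000 seeded cells/well. The cells were AKT1 E17K-expressing LAPC4 prostate cancer cells maintained in IMDM plus 12% FBS. IC50 values came from Hill-equation fits.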

[3] = molecular target: T2, AKT1 WT (Homo sapiens, UniProt P31749); assay: Live cell AKT1 WT target engagement by NanoBRET competitive probe displacement in HEK293 cells; assay type: binding; conditions: 2 h at 37° C., read-out: AKT1 WT IC50
T2 construct: expressed in transfected cells; host or cells: HEK293
T2 sequence (P31749 whole entry): as the sequence (P31749 whole entry E17K) above, with K17E counted along it

[4] = molecular target: T3, AKT2 (Homo sapiens, UniProt P31751); assay: Live cell AKT2 target engagement by NanoBRET competitive probe displacement in HEK293 cells; assay type: binding; conditions: 2 h at 37° C., read-out: AKT2 IC50
T3 construct: expressed in transfected cells; host or cells: HEK293
T3 sequence (P31751 whole entry): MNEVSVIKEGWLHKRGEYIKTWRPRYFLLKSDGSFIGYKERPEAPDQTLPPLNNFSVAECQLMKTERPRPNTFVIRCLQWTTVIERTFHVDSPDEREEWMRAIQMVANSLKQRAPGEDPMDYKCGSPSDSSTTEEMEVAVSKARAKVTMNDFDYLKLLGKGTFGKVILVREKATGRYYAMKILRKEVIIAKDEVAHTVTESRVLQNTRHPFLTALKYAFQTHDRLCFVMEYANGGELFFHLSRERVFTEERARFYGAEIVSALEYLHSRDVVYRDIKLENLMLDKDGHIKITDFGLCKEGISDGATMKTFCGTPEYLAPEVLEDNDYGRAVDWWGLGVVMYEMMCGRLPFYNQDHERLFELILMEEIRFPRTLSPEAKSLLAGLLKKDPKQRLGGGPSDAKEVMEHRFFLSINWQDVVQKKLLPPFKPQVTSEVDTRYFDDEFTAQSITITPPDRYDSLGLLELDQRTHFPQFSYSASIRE

[5] = NanoBRET live cell target engagement, HEK293 cells
[6] = NanoBRET competitive probe displacement, live HEK293 cells

IC50 [1, 5]	IC50 ([2]; Homo sapiens, LAPC4, 72 h)	IC50 [3, 5]	IC50 [4, 5]	IC50 [1, 6]	IC50 [3, 6]	IC50 [4, 6]	IC50 [2]	SMILES
93.9 nM	1260 nM	13.2 nM	525 nM	–	–	–	–	Nc1ncccc1-c1nc2ccc(-n3cccn3)nc2n1-c1ccc2c(c1)CC[C@@H]2n1cnnc1CC1CC1 [Compound 384]
14.4 nM	631 nM	2.84 nM	40.7 nM	–	–	–	–	Nc1ncccc1-c1nc2ccc(-n3cccn3)nc2n1-c1ccc2c(c1)CC[C@@H]2NC(=O)c1ccc(O)cc1 [Compound 42, (S)—N-(5-(2-(2-aminopyridin-3-yl)-5-(1H-pyrazol-1-yl)-3H-imidazo[4,5-b]pyridin-3-yl)-2,3-dihydro-1H-inden-1-yl)-4-hydroxybenzamide]
232 nM	6360 nM	55.1 nM	846 nM	–	–	–	–	Cn1cc(C(=O)N[C@H]2CCc3cc(-n4c(-c5cccnc5N)nc5ccc(-n6cccn6)nc54)ccc32)ccc1=O [Compound 24, (S)—N-(5-(2-(2-aminopyridin-3-yl)-5-(1H-pyrazol-1-yl)-3H-imidazo[4,5-b]pyridin-3-yl)-2,3-dihydro-1H-inden-1-yl)-1-methyl-6-oxo-1,6-dihydropyridine-3-carboxamide]
283 nM	4780 nM	69.9 nM	2990 nM	–	–	–	–	CCOC(=O)N1CCC(N[C@H]2CCc3cc(-n4c(-c5cccnc5N)nc5ccc(-n6cccn6)nc54)ccc32)CC1 [Compound 289]
–	2730 nM	–	–	177 nM	15 nM	656 nM	–	Nc1ncccc1-c1nc2ccc(-n3cccn3)nc2n1-c1ccc2c(c1)CC[C@@H]2NC(=O)c1cnns1 [Compound 399]
25.6 nM	585 nM	4.07 nM	19 nM	–	–	–	–	COc1ccc(C(=O)N[C@H]2CCc3cc(-n4c(-c5cccnc5N)nc5ccc(-n6cccn6)nc54)ccc32)cn1 [Compound 38, N-[(1S)-5-[2-(2-aminopyridin-3-yl)-5-(pyrazol-1-yl)imidazo[4,5-b]pyridin-3-yl]-2,3-dihydro-1H-inden-1-yl]-6-methoxypyridine-3-carboxamide]
31.8 nM	> 10000 nM	15.8 nM	105 nM	–	–	–	–	Cn1nc(C(=O)N[C@H]2CCc3cc(-n4c(-c5cccnc5N)nc5ccc(-n6cccn6)nc54)ccc32)c2c1OCC2 [Compound 390]
92.3 nM	4150 nM	13.1 nM	546 nM	–	–	–	–	Cc1ncc(F)cc1C(=O)N[C@H]1CCc2cc(-n3c(-c4cccnc4N)nc4ccc(-n5nccn5)nc43)ccc21 [Compound 382]
107 nM	1510 nM	16.2 nM	49.2 nM	–	–	–	–	C#Cc1ccc(C(=O)N[C@H]2CCc3cc(-n4c(-c5cccnc5N)nc5ccc(-n6cccn6)nc54)ccc32)cn1 [Compound 55, (S)—N-(5-(2-(2-aminopyridin-3-yl)-5-(1H-pyrazol-1-yl)-3H-imidazo[4,5-b]pyridin-3-yl)-2,3-dihydro-1H-inden-1-yl)-6-ethynylnicotinamide]
486 nM	4290 nM	24.7 nM	411 nM	–	–	–	–	Nc1ncccc1-c1nc2ccc(-n3cccn3)nc2n1-c1ccc2c(c1)CC[C@@H]2NC(=O)c1ccnc2c1CCCO2 [Compound 361]

The next lines start with the compound.

SMILES	IC50 [1, 5]	IC50 ([2]; Homo sapiens, LAPC4, 72 h)	IC50 [3, 5]	IC50 [4, 5]	IC50 [1, 6]	IC50 [3, 6]	IC50 [4, 6]	IC50 [2]
Cc1cc(C(=O)N[C@H]2CCc3cc(-n4c(-c5cccnc5N)nc5ccc(-n6cccn6)nc54)ccc32)n[nH]1 [Compound 4, (S)—N-(5-(2-(2-aminopyridin-3-yl)-5-(1H-pyrazol-1-yl)-3H-imidazo[4,5-b]pyridin-3-yl)-2,3-dihydro-1H-inden-1-yl)-5-methyl-11H-pyrazole-3-carboxamide]	172 nM	1770 nM	19.7 nM	295 nM	–	–	–	–
Cn1ccc2c(C(=O)N[C@H]3CCc4cc(-n5c(-c6cccnc6N)nc6ccc(-n7cccn7)nc65)ccc43)[nH]cc2c1=O [Compound 6, (S)—N-(5-(2-(2-aminopyridin-3-yl)-5-(1H-pyrazol-1-yl)-3H-imidazo[4,5-b]pyridin-3-yl)-2,3-dihydro-1H-inden-1-yl)-5-methyl-4-oxo-4,5-dihydro-2H-pyrrolo[3,4-c]pyridine-1-carboxamide]	179 nM	1660 nM	10.8 nM	307 nM	–	–	–	–
Nc1ncccc1-c1nc2ccc(-n3cccn3)nc2n1-c1ccc2c(c1)CC[C@@H]2NC(=O)c1ccc(F)c(F)c1 [Compound 262]	68.1 nM	2340 nM	8.14 nM	211 nM	–	–	–	–
Cn1ccc(C(=O)N[C@H]2CCc3cc(-n4c(-c5cccnc5N)nc5ccc(-n6cccn6)nc54)ccc32)n1 [Compound 13, (S)—N-(5-(2-(2-aminopyridin-3-yl)-5-(1H-pyrazol-1-yl)-3H-imidazo[4,5-b]pyridin-3-yl)-2,3-dihydro-1H-inden-1-yl)-1-methyl-1H-pyrazole-3-carboxamide]	329 nM	3480 nM	49.4 nM	1270 nM	–	–	–	–
N#CC1(C(=O)N2CCC(N[C@H]3CCc4cc(-n5c(-c6cccnc6N)nc6ccc(-n7cccn7)nc65)ccc43)CC2)CC1 [Compound 369]	> 1000 nM	> 10000 nM	117 nM	5590 nM	–	–	–	–
Nc1ncccc1-c1nc2ccc(-n3cccn3)nc2n1-c1ccc2c(c1)CC(F)[C@@H]2NC1CCN(C(=O)C2CC2)CC1 (single isomer, unassigned) [Compound 386]	> 487 nM	> 7160 nM	17.6 nM	1310 nM	–	–	–	–
COC1(C(F)F)CC(C(=O)N[C@H]2CCc3cc(-n4c(-c5cccnc5N)nc5ccc(-n6cccn6)nc54)ccc32)C1 (single isomer, unassigned) [Compound 10]	> 1000 nM	> 10000 nM	390 nM	> 10000 nM	–	–	–	–
COc1cc(C(=O)N[C@H]2CCc3cc(-n4c(-c5cccnc5N)nc5ccc(-n6nccn6)nc54)ccc32)cnn1 [Compound 426]	–	1510 nM	–	–	59 nM	3.17 nM	360 nM	–
Cc1ccc(C(=O)N[C@H]2CCc3cc(-n4c(-c5ccccc5F)nc5ccc(-n6cccn6)nc54)ccc32)cn1 [Compound 401]	–	4210 nM	–	–	108 nM	10.9 nM	2730 nM	–
Nc1ncccc1-c1nc2ccc(-n3cccn3)nc2n1-c1ccc2c(c1)CC[C@@H]2NC(=O)c1ccc2oncc2c1 [Compound 20, (S)—N-(5-(2-(2-aminopyridin-3-yl)-5-(1H-pyrazol-1-yl)-3H-imidazo[4,5-b]pyridin-3-yl)-2,3-dihydro-1H-inden-1-yl)benzo[d]isoxazole-5-carboxamide]	137 nM	8490 nM	126 nM	713 nM	–	–	–	–
CCc1coc(C(=O)N[C@H]2CCc3cc(-n4c(-c5cccnc5N)nc5ccc(-n6cccn6)nc54)ccc32)n1 [Compound 57, (S)—N-(5-(2-(2-aminopyridin-3-yl)-5-(1H-pyrazol-1-yl)-3H-imidazo[4,5-b]pyridin-3-yl)-2,3-dihydro-1H-inden-1-yl)-4-ethyloxazole-2-carboxamide]	192 nM	1320 nM	23.4 nM	52.8 nM	–	–	–	–
Nc1ncccc1-c1nc2ccc(-n3cccn3)nc2n1-c1ccc2c(c1)CC[C@@H]2NC(=O)c1cnccn1 [Compound 19, (S)—N-(5-(2-(2-aminopyridin-3-yl)-5-(1H-pyrazol-1-yl)-3H-imidazo[4,5-b]pyridin-3-yl)-2,3-dihydro-1H-inden-1-yl)pyrazine-2-carboxamide]	167 nM	8030 nM	43.5 nM	2120 nM	–	–	–	–
Nc1ncccc1-c1nc2ccc(-n3cccn3)nc2n1-c1ccc2c(c1)CC[C@@H]2NC(=O)c1ccn(C(F)F)n1 [Compound 174]	52 nM	1440 nM	13.2 nM	431 nM	–	–	–	–
Nc1ncccc1-c1nc2ccc(-n3cccn3)nc2n1-c1ccc2c(c1)CC[C@@H]2NC(=O)c1cc(O)c(O)cc1F [Compound 351, N-[(1S)-5-[2-(2-aminopyridin-3-yl)-5-(pyrazol-1-yl)imidazo[4,5-b]pyridin-3-yl]-2,3-dihydro-1H-inden-1-yl]-2-fluoro-4,5-dihydroxybenzamide]	82.5 nM	1140 nM	20.3 nM	497 nM	–	–	–	–
Nc1ncccc1-c1nc2ccc(-n3cccn3)nc2n1-c1ccc2c(c1)CC(F)[C@@H]2NC1CCc2cnccc21 (single isomer, unassigned) [Compound 482]	–	827 nM	–	–	140 nM	5.39 nM	194 nM	–
Cc1cc(C(F)F)ncc1C(=O)N[C@H]1CCc2cc(-n3c(-c4cccnc4N)nc4ccc(-n5cccn5)nc43)ccc21 [Compound 56, (S)—N-(5-(2-(2-aminopyridin-3-yl)-5-(1H-pyrazol-1-yl)-3H-imidazo[4,5-b]pyridin-3-yl)-2,3-dihydro-1H-inden-1-yl)-6-(difluoromethyl)-4-methylnicotinamide]	143 nM	1630 nM	12.2 nM	43.3 nM	–	–	–	–
Nc1ncccc1-c1nc2ccc(-n3nccn3)nc2n1-c1ccc2c(c1)CC(F)[C@@H]2NC(=O)c1ccc(C(F)F)nc1 (stereo partly drawn) [Compound 350]	94.4 nM	–	11.5 nM	423 nM	–	–	–	885 nM
